Among the data in patent publication US10654834B2 (Venenum Biodesign, LLC, priority 2016, dated 2020) are EC50 values, retold here.

One experiment has as its target T1, human TGR5 receptor (Homo sapiens, UniProt Q8TDU6).
T1 construct: host or cells: CHO-K1 (hTGR5-CHO)
T1 sequence (Q8TDU6 1-330): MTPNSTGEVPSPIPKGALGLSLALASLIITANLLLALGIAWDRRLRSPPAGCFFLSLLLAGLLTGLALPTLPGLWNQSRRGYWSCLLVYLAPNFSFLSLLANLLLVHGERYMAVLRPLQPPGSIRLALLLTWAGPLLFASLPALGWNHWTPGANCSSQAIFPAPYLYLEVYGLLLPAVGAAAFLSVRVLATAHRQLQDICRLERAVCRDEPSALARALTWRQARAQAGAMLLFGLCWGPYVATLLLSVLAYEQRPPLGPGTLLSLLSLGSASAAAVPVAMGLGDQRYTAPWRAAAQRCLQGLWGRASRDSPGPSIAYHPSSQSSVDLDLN
As to the kind of experiment: Human TGR5 cAMP production assay (hTGR5-CHO cells, DiscoveRx cAMP XS+ kit). Particulars: luminescent cAMP assay, read-out: Human TGR5 Lum. cAMP Activity (EC50). Format: cell-based. The procedure:
Human TGR5 cAMP Production Assay
Compounds of the present invention were evaluated for their ability to induce cAMP production using CHO-K1 cells overexpressing the human TGR5 receptor.
CHO-K1 cells stably expressing human TGR5 receptor (accession number NM_001077194.1) (hTGR5) (i.e., hTGR5-CHO cells) were purchased from DiscoveRx Corporation (Fremont, Calif.). hTGR5-CHO cells were grown in Ham's F-12 media supplemented with 10% Fetal Bovine Serum, 1% Penicillin-Streptomycin, 2 mM L-Alanine L-Glutamine (Glutamax), and 800 μg/mL Geneticin selection. The cAMP production assay was performed using DiscoveRx's cAMP XS+ kit (Catalog No. 90-0075XL) following the manufacturer's recommended protocol. Briefly, hTGR5-CHO cells were harvested using non-enzymatic cell dissociation buffer (Sigma-Aldrich, St. Louis, Mo.) and 1×10^6 cells were combined in Phosphate-Buffered Saline (PBS) to a final volume of 496 μL to which 4 μL of 125 mM IBMX (Sigma-Aldrich, St. Louis, Mo.) was added. 500 μL of cAMP antibody solution was added to the harvested cells and incubated at room temperature for 20 min.
Test compounds were serially diluted (half-log dilutions) in DMSO and then further diluted 1:50 in PBS, 10 mM HEPES buffer. 2 μL of serially diluted compound was added to a 384-well low volume plate (Greiner; cat #784075) and centrifuged briefly. 2 μl of the cell/cAMP antibody mixture was then added to each compound-containing well and allowed to incubate at room temperature for one hour. Following incubation, the XS+ kits' ED/Lysis/CL Substrate Working Solution was prepared following the manufacturer's recommended protocol and 4 μL was added to each well of the plate. The plate was then incubated for one hour at room temperature. Following incubation, 4 μL of Enzyme Acceptor reagent was added to the plate and allowed to incubate overnight at room temperature. Luminescent signal was then detected using the Viewlux instrument (Perkin-Elmer, Waltham, Mass.).
Human and Mouse TGR5 cAMP
(§1) In Table 52, EC50 values for both human and mouse cells were determined according to the TGR5 cAMP assays described above. […]
For orientation: cAMP levels reflect the balance of adenylyl cyclase and phosphodiesterase activity.

The target in another experiment is T2, mouse TGR5 receptor (Mus musculus, UniProt Q80SS6).
T2 construct: host or cells: HEK293-EBNA (293 c18, ATCC CRL10852)
T2 sequence (Q80SS6 1-329): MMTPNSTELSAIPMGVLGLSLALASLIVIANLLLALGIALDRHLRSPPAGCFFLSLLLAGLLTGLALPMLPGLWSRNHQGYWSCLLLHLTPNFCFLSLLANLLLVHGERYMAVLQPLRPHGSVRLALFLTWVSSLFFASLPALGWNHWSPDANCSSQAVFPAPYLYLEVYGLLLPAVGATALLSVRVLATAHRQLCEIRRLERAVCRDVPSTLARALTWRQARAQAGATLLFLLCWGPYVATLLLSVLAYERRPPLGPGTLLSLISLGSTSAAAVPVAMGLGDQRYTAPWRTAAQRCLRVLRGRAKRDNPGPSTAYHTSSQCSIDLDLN
As to the kind of experiment: Mouse TGR5 HTRF cAMP production assay (HEK293-EBNA cells, Cisbio cAMP HiRange kit). Type of experiment: cell-based. As to conditions: HEK293-EBNA cells overexpressing mouse TGR5, HTRF cAMP assay. How it is done:
Mouse TGR5 cAMP Production Assay
Compounds of the present invention were evaluated for their ability to induce cAMP production in HEK-EBNA cells overexpressing the mouse TGR5 receptor. Human embryonic kidney cells (HEK293-EBNA) stably expressing mouse TGR5 receptor were established using the following procedure. Specifically, a commercially obtained gene encoding mouse TGR5 (accession number BC116914) from Thermo Scientific (Waltham, Mass.) was cloned into an episomal expression vector. The resulting expression plasmid was then transfected into 293 c18 (ATCC® CRL10852™) cells, which express the Epstein-Barr virus nuclear antigen EBNA1 and can support the replication of episomal vectors. Selection for the plasmid was maintained with Hygromycin B. Cells were cultured and maintained in DMEM (Sigma; cat #6429) supplemented with 10% Fetal Bovine Serum, 1% penicillin/streptomycin, 2 mM L-alanine L-glutamine (GlutaMax), and 250 μg/mL Hygromycin.
We developed two cAMP production assays.
(ii) HTRF cAMP Production Assay
In this second cAMP production assay, the cAMP production was measured in 384-well low volume plates (Greiner; cat #784075) using the Cisbio™ cAMP HiRange HTRF Assay Kit (CisBio) according to the manufacturer's protocol.
Briefly, compounds were initially diluted in 100% DMSO (12-point serial dilution by half logs) in a 96-well plate and then were further diluted 1:50 in PBS containing 10 mM HEPES. 5 μL were transferred to the 384-well assay plate in duplicate. HEK293-EBNA cells stably overexpressing mouse TGR5 were harvested using non-enzymatic cell dissociation buffer (Sigma), spun down, then resuspended in serum-free DMEM with 500 μM IBMX at a density of 500,000 cells/mL. 5 μL of cell suspension was transferred to each well of the 384-well assay plate already containing compound. The plate was covered and incubated at room temperature for 1 hour. The d2-cAMP and anti-cAMP Ab-cryptate stock solutions were prepared as per kit instructions. Then 5 μL of each conjugate (d2 and cryptate) were added to each well of the assay plate. The plate was covered and incubated at room temperature for one (1) hour. The plate was read on an Envision™ plate reader (PerkinElmer).
as §1
(In general: In TR-FRET formats the signal depends on donor and acceptor labels being close together.)

The term EC50 denotes the midpoint of the concentration-response curve. Take `N#Cc1ccc(CCNC(=O)[C@@H]2CCCN2c2cc(-c3cccc(CCC(=O)NCCS(=O)(=O)O)c3)nc(C(F)(F)F)n2)cc1` [Compound 190, (S)-2-(3-(3-(6-(2-((4-cyanophenethyl)-carbamoyl)pyrrolidin-1-yl)-2-(trifluoromethyl)pyrimidin-4-yl)phenyl)-propanamido)ethanesulfonic acid]: the concentration giving a half-maximal response (EC50) at human TGR5 receptor is 1000 to 30000 nM; on mouse TGR5 receptor, less than 100 nM.
For `N#Cc1ccc(CCNC(=O)[C@@H]2CCCN2c2cc(-c3ccc(CNC(=O)NCS(=O)(=O)O)cc3)nc(C(F)(F)F)n2)cc1` [Compound 192, (S)-(3-(4-(6-(2-((4-cyanophenethyl)carbamoyl)pyrrolidin-1-yl)-2-(trifluoromethyl)pyrimidin-4-yl)benzyl)ureido)methanesulfonic acid], in that order: 100 to 999 nM and less than 100 nM.
For the molecule `N#Cc1ccc(CCNC(=O)[C@@H]2CCCN2c2cc(-c3ccc(CCNC(=O)NCCS(=O)(=O)O)cc3)nc(C(F)(F)F)n2)cc1` [Compound 194, (S)-2-(3-(4-(6-(2-((4-cyanophenethyl)carbamoyl)pyrrolidin-1-yl)-2-(trifluoromethyl)pyrimidin-4-yl)phenethyl)ureido)ethanesulfonic acid], the EC50 at human TGR5 receptor is 100 to 999 nM; on mouse TGR5 receptor it was less than 100 nM.
`O=C(CCCC1CCN(c2cc(N3CCC[C@H]3C(=O)NCCc3ccccc3)nc(C(F)(F)F)n2)CC1)NCS(=O)(=O)O` [Compound 365, (S)-(4-(1-(6-(2-(phenethylcarbamoyl)pyrrolidin-1-yl)-2-(trifluoromethyl)pyrimidin-4-yl)piperidin-4-yl)butanamido)methanesulfonic acid]: the 50% effective concentration (EC50) at human TGR5 receptor and on mouse TGR5 receptor was 100 to 999 nM throughout.
As to `N#Cc1ccc(CCNC(=O)[C@@H]2CCCN2c2cc(N3CCC(CCCC(=O)N[C@H](CCCNC(=N)N)C(=O)N[C@H](CCC(=O)O)C(=O)O)CC3)nc(C(F)(F)F)n2)cc1` [Compound 203, (R)-2-((R)-2-(4-(1-(6-((S)-2-((4-cyanophenethyl)carbamoyl)pyrrolidin-1-yl)-2-(trifluoromethyl)pyrimidin-4-yl)piperidin-4-yl)butanamido)-5-guanidino-pentanamido)pentanedioic acid], the EC50 on human TGR5 receptor and on mouse TGR5 receptor was less than 100 nM in each case.
Regarding `N#Cc1ccc(CCNC(=O)[C@@H]2CCCN(c3cc(N4CCN(CC(=O)O)CC4)nc(C(F)(F)F)n3)C2)cc1` [Compound 315, (R)-2-(4-(6-(3-((4-cyanophenethyl)carbamoyl)piperidin-1-yl)-2-(trifluoromethyl)pyrimidin-4-yl)piperazin-1-yl)acetic acid], the EC50 at human TGR5 receptor was 1000 to 30000 nM; at mouse TGR5 receptor it was less than 100 nM.
For `N#Cc1ccc(CCNC(=O)[C@@H]2CCCN2c2cc(-c3ccc(CCC(=O)N[C@@H](CCCNC(=N)N)C(=O)O)cc3)cc(C(F)(F)F)n2)cc1` [Compound 207, (S)-2-(3-(4-(2-((S)-2-((4-cyanophenethyl)carbamoyl)pyrrolidin-1-yl)-6-(trifluoromethyl)pyridin-4-yl)phenyl)propanamido)-5-guanidino-pentanoic acid], in that order: 100 to 999 nM and less than 100 nM.
On the same counts, the results for `O=C(O)CCCC1CCN(c2cc(N3C[C@H](O)C[C@H]3C(=O)NCCc3ccc(C(F)(F)F)cc3)nc(C(F)(F)F)n2)CC1` [Compound 212, 4-(1-(6-((2S,4R)-4-hydroxy-2-((4-(trifluoromethyl)phenethyl)carbamoyl)pyrrolidin-1-yl)-2-(trifluoromethyl)pyrimidin-4-yl)piperidin-4-yl)butanoic acid] are 100 to 999 nM and less than 100 nM.
`CCOC(=O)CCNC(=O)NCCC1CCN(c2cc(N3CC[C@H]3C(=O)NCCc3ccc(C#N)cc3)nc(C(F)(F)F)n2)CC1` [Compound 267, (S)-ethyl 3-(3-(2-(1-(6-(2-((4-cyanophenethyl)carbamoyl)azetidin-1-yl)-2-(trifluoromethyl)pyrimidin-4-yl)piperidin-4-yl)ethyl)ureido)propanoate]: the half-maximal effective concentration (EC50) at human TGR5 receptor and on mouse TGR5 receptor was less than 100 nM each time.
Take `N#CCCC1CCN(c2cc(N3CCC[C@H]3C(=O)NCCc3ccc(C(F)(F)F)cc3)nc(C(F)(F)F)n2)CC1` [Compound 11]: the EC50 at human TGR5 receptor and on mouse TGR5 receptor was less than 100 nM in each case.
On to `N#Cc1ccc(CCNC(=O)[C@@H]2CCN2c2cc(N3CCC(CCCC(=O)N[C@@H](CCCNC(=N)N)C(=O)O)CC3)nc(C(F)(F)F)n2)cc1` [Compound 251, (S)-2-(4-(1-(6-((S)-2-((4-cyanophenethyl)carbamoyl)azetidin-1-yl)-2-(trifluoromethyl)pyrimidin-4-yl)piperidin-4-yl)butanamido)-5-guanidinopentanoic acid], for which the half-maximal effective concentration (EC50) at human TGR5 receptor and on mouse TGR5 receptor was less than 100 nM each time.
Take `CC(C)(C)OC(=O)N[C@@H](CO)C(=O)N1CCN(c2cc(N3CCC[C@@H](C(=O)NCCc4ccc(C(F)(F)F)cc4)C3)nc(C(F)(F)F)n2)CC1` [Compound 341, tert-butyl ((S)-3-hydroxy-t-oxo-1-(4-(2-(trifluoromethyl)-6-((R)-3-((4-(trifluoromethyl)phenethyl)carbamoyl)piperidin-1-yl)pyrimidin-4-yl)piperazin-1-yl)propan-2-yl)carbamate]: the concentration for a half-maximal effect (EC50) was in the range of 1000 to 30000 nM on human TGR5 receptor and 100 to 999 nM at mouse TGR5 receptor.
As to `O=C(O)CCCC1CCN(c2cc(N3CC[C@H]3C(=O)NCCc3ccc(C(F)(F)F)cc3)nc(C(F)(F)F)n2)CC1` [Compound 233, (S)-4-(1-(2-(trifluoromethyl)-6-(2-((4-(trifluoromethyl)phenethyl)carbamoyl)azetidin-1-yl)pyrimidin-4-yl)piperidin-4-yl)butanoic acid], the EC50 on human TGR5 receptor and on mouse TGR5 receptor was less than 100 nM each time.
`N#Cc1ccc(CCNC(=O)[C@@H]2CCCN2c2cc(NCCS(=O)(=O)O)nc(C(F)(F)F)n2)cc1` [Compound 12]: the half-maximal effective concentration (EC50) on human TGR5 receptor and at mouse TGR5 receptor was 1000 to 30000 nM throughout.
